Results published in PubChem BioAssay AID2060604 (Molecular Pharmacology Branch, DTP, NCI, 2025).
“And” between values parts separate entries of the source, which are not always exact repeats. Identical values can stand only once.

Test system: 379773-124-R-J2-PDC complex spheroids, viability % test/control
Test: Anticancer human tumor 379773-124-R-J2-PDC patient-derived endometrial carcinoma cell line growth inhibition [CLK]
Settings: for viability, T/C: stronger effect = lower value
Outline: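 Multi-cell-type spheroids combined patient-derived tumor cells with HUVEC endothelial cells and human mesenchymal stem cells. Paired agents were dosed in half-log steps down from about clinical Cmax, or from 10 microM where Cmax was unknown.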

[1] = curve of first compound, second compound 0.0316 µM
[2] = curve of first compound, second compound 0.1 µM
[3] = curve of first compound, second compound 0.316 µM
[4] = curve of first compound, second compound 1 µM
[5] = curve of first compound, second compound 3.16 µM
[6] = curve of first compound, second compound 10 µM
[7] = second compound 0.0316 µM, first compound 0.0316 µM
[8] = second compound 0.0316 µM, first compound 0.1 µM
[9] = second compound 0.0316 µM, first compound 0.316 µM
[10] = second compound 0.0316 µM, first compound 1 µM
[11] = second compound 0.0316 µM, first compound 3.16 µM
[12] = second compound 0.0316 µM, first compound 10 µM
[13] = second compound 0.1 µM, first compound 0.0316 µM
[14] = second compound 0.1 µM, first compound 0.1 µM
[15] = second compound 0.1 µM, first compound 0.316 µM
[16] = second compound 0.1 µM, first compound 1 µM
[17] = second compound 0.1 µM, first compound 3.16 µM
[18] = second compound 0.1 µM, first compound 10 µM
[19] = second compound 0.316 µM, first compound 0.0316 µM
[20] = second compound 0.316 µM, first compound 0.1 µM
[21] = second compound 0.316 µM, first compound 0.316 µM
[22] = second compound 0.316 µM, first compound 1 µM
[23] = second compound 0.316 µM, first compound 3.16 µM
[24] = second compound 0.316 µM, first compound 10 µM
[25] = second compound 1 µM, first compound 0.0316 µM
[26] = second compound 1 µM, first compound 0.1 µM
[27] = second compound 1 µM, first compound 0.316 µM
[28] = second compound 1 µM, first compound 1 µM
[29] = second compound 1 µM, first compound 3.16 µM
[30] = second compound 1 µM, first compound 10 µM
[31] = second compound 3.16 µM, first compound 0.0316 µM
[32] = second compound 3.16 µM, first compound 0.1 µM
[33] = second compound 3.16 µM, first compound 0.316 µM
[34] = second compound 3.16 µM, first compound 1 µM
[35] = second compound 3.16 µM, first compound 3.16 µM
[36] = second compound 3.16 µM, first compound 10 µM
[37] = second compound 10 µM, first compound 0.0316 µM
[38] = second compound 10 µM, first compound 0.1 µM
[39] = second compound 10 µM, first compound 0.316 µM
[40] = second compound 10 µM, first compound 1 µM
[41] = second compound 10 µM, first compound 3.16 µM
[42] = second compound 10 µM, first compound 10 µM
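Further: compound exposure lasted seven days before the viability readout.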
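Wherever viability, T/C is given: 100% = DMSO vehicle control wells.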

For O=C(c1cc(Cc2n[nH]c(=O)c3ccccc23)ccc1F)N1CCN(C(=O)C2CC2)CC1, the viability, T/C (compound 0.0316 µM) was 83.1% and 108%, the viability, T/C (compound 0.1 µM) was 89% and 86.6% and the viability, T/C (compound 0.316 µM) was 89.2% and 84.2%. For the same molecule, the viability, T/C (compound 1 µM) was 89.5% and 80.5%, the viability, T/C (compound 3.16 µM) was 81.5% and 78.6% and the viability, T/C (compound 10 µM) was 56.1% and 47%. The IC50 (curve of compound) was over 10000 nM.

COc1ccc([C@@H](O)c2cc(-c3ncnc4cc(N5CCOCC5)ccc34)c(F)cc2Cl)nn1 + CNC(=O)c1ccc(Nc2nc(OC3CCCC3)c3c(-c4ccc5nc(C)oc5c4)c[nH]c3n2)c(OC)c1 showed an IC50 [1] of 3420 nM, an IC50 [2] of under 31.6 nM and an IC50 [3] of under 31.6 nM. For the same molecule, the IC50 [4] was under 31.6 nM, the IC50 [5] was under 31.6 nM and the IC50 [6] was under 31.6 nM. It also gave a viability, T/C [7] of 79.2%, a viability, T/C [8] of 79.9% and a viability, T/C [9] of 68%. For the same molecule, the viability, T/C [10] was 60.6%, the viability, T/C [11] was 58.7% and the viability, T/C [12] was 20.4%. For the same molecule, the viability, T/C [13] was 35.6%, the viability, T/C [14] was 30.8% and the viability, T/C [15] was 32.7%. For the same molecule, the viability, T/C [16] was 29.7%, the viability, T/C [17] was 24% and the viability, T/C [18] was 12.7%. For the same molecule, the viability, T/C [19] was 45.2%, the viability, T/C [20] was 38% and the viability, T/C [21] was 29%. For the same molecule, the viability, T/C [22] was 21.6%, the viability, T/C [23] was 15.1% and the viability, T/C [24] was 7.43%. The viability, T/C [25] was 34.8%, the viability, T/C [26] was 35% and the viability, T/C [27] was 32.1%. The viability, T/C [28] was 25.9%, the viability, T/C [29] was 14.9% and the viability, T/C [30] was 6.1%. It also gave a viability, T/C [31] of 34.7%, a viability, T/C [32] of 32.3% and a viability, T/C [33] of 27.8%. For the same molecule, the viability, T/C [34] was 19.3%, the viability, T/C [35] was 15.7% and the viability, T/C [36] was 4.62%. For the same molecule, the viability, T/C [37] was 32.8%, the viability, T/C [38] was 33.7% and the viability, T/C [39] was 23.4%. It also gave a viability, T/C [40] of 17.9%, a viability, T/C [41] of 14.2% and a viability, T/C [42] of 4.23%.

CC(=O)O[C@H]1C(=O)[C@@]2(C)[C@H]([C@H](OC(=O)c3ccccc3)[C@]3(O)C[C@H](OC(=O)[C@H](O)[C@@H](NC(=O)c4ccccc4)c4ccccc4)C(C)=C1C3(C)C)[C@]1(OC(C)=O)CO[C@@H]1C[C@@H]2O + CNC(=O)c1ccc(Nc2nc(OC3CCCC3)c3c(-c4ccc5nc(C)oc5c4)c[nH]c3n2)c(OC)c1 gave an IC50 [1] of under 31.6 nM, an IC50 [2] of under 31.6 nM and an IC50 [3] of under 31.6 nM. It also gave an IC50 [4] of under 31.6 nM, an IC50 [5] of under 31.6 nM and an IC50 [6] of under 31.6 nM. For the same molecule, the viability, T/C [7] was 9.1%, the viability, T/C [8] was 12.2% and the viability, T/C [9] was 13.4%. For the same molecule, the viability, T/C [10] was 9.72%, the viability, T/C [11] was 15.4% and the viability, T/C [12] was 17.7%. The viability, T/C [13] was 24.6%, the viability, T/C [14] was 28.4% and the viability, T/C [15] was 28.9%. The viability, T/C [16] was 34.6%, the viability, T/C [17] was 25% and the viability, T/C [18] was 33.2%. The viability, T/C [19] was 27.6%, the viability, T/C [20] was 24.8% and the viability, T/C [21] was 33.2%. It also gave a viability, T/C [22] of 33.3%, a viability, T/C [23] of 32.2% and a viability, T/C [24] of 27.7%. It also gave a viability, T/C [25] of 30%, a viability, T/C [26] of 28.4% and a viability, T/C [27] of 33.6%. It also gave a viability, T/C [28] of 36%, a viability, T/C [29] of 29.2% and a viability, T/C [30] of 37.7%. For the same molecule, the viability, T/C [31] was 30%, the viability, T/C [32] was 27.3% and the viability, T/C [33] was 28.9%. The viability, T/C [34] was 25.5%, the viability, T/C [35] was 26.4% and the viability, T/C [36] was 31.8%. It also gave a viability, T/C [37] of 29.1%, a viability, T/C [38] of 33.5% and a viability, T/C [39] of 31.6%. It also gave a viability, T/C [40] of 35.1%, a viability, T/C [41] of 30.7% and a viability, T/C [42] of 36.1%.
